The term EC50 denotes the midpoint of the concentration-response curve. Lower therefore signals a more potent agent.

The values below come from patent US7638508B2, “Glucocorticosteroid compound having anti-inflammatory activity” (Glaxo Group Limited, priority 2003, dated 2009).

Molecules are shown by their SMILES.

In the first assay the target is T1, glucocorticoid receptor (Homo sapiens, UniProt P04150).
T1 sequence (P04150 1-777): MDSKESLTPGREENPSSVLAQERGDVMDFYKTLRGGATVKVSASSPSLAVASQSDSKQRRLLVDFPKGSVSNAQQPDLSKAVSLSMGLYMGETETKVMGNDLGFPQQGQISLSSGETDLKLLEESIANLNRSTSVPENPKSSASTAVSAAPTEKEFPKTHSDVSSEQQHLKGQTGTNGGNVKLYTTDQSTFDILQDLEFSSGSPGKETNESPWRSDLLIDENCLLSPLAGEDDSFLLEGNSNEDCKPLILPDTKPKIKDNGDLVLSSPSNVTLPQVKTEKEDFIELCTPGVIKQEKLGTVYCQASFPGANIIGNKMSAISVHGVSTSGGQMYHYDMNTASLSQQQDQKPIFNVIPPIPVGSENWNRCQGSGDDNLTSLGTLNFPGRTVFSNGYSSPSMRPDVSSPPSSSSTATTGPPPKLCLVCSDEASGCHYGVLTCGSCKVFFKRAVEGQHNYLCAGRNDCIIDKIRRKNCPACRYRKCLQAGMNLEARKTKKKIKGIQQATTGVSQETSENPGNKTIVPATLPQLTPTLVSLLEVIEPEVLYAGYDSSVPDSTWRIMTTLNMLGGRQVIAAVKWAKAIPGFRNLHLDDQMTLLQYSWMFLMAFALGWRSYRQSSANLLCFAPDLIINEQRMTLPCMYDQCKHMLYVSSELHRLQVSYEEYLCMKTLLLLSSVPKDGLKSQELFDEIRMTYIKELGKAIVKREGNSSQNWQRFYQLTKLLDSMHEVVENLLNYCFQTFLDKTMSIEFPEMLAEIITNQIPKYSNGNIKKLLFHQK
In words: MMTV-LTR renilla luciferase reporter assay in A549 cells (direct transactivation of gene expression). Format: cell-based. As to conditions: 6 hour at 37° C., read-out: maximal response relative to Dexamethasone (100%). The protocol:
Pharmacological activity may be assessed in functional in vitro assays of glucocorticoid agonist activity.
The functional assay based on that described by R. J. H. Austin et al., Eur Resp J. (2002), 20, 1386-1392 measures the ability of compounds to directly transactivate gene expression. A549 cells stably transfected with a reporter gene containing the glucocorticoid responsive region of the mouse mammary tumour virus long terminal repeat (MMTV-LTR) coupled to renilla luciferase were treated with test compounds at appropriate doses for 6 hour at 37° C. The amount of luciferase activity present within the cells is then determined by measuring the light emitted following incubation with a suitable substrate.
In general terms: Reporter assays use an easily measured gene product as a stand-in for the process of interest.
`CC1CC2C3CC(F)C4=CC(=O)C=CC4(C)C3(F)C(O)CC2(C)C1(OC(=O)C1C(C)(C)C1(C)C)C(=O)SCC#N` (stereo not drawn) [Example 1, 6α,9α-Difluoro-11β-hydroxy-16α-methyl-3-oxo-17α-(2,2,3,3-tetramethycyclopropylcarbonyl)oxy-androsta-1,4-diene-17β-carbothioic Acid S-cyanomethyl Ester]: the Emax was under 35%.

With `COc1c(C(=O)OC2(C(=O)SCC#N)C(C)CC3C4CC(F)C5=CC(=O)C=CC5(C)C4(F)C(O)CC32C)csc1Cl` (stereo not drawn) [Example 3, 17α-(5-Chloro-4-methoxy-thiophene-3-carbonyl)oxy-6α,9α-difluoro-11β-hydroxy-16α-methyl-3-oxo-androsta-1,4-diene-17β-carbothioic Acid S-cyanomethyl Ester], the Emax was under 35%.

On to `C[C@@H]1C[C@H]2[C@@H]3C[C@H](F)C4=CC(=O)C=C[C@]4(C)[C@@]3(F)[C@@H](O)C[C@]2(C)[C@@]1(OC(=O)C1CCCCC1)C(=O)OCC#N` [Example 5, 17α-(Cyclohexylcarbonyl)oxy-6α,9α-difluoro-11β-hydroxy-16α-methyl-3-oxo-androsta-1,4-diene-17β-carboxylic Acid cyanomethyl Ester], for which the Emax is under 35%.

With `CC1CC2C3CC(F)C4=CC(=O)C=CC4(C)C3(F)C(O)CC2(C)C1(OC(=O)c1c(F)cccc1F)C(=O)OCC#N` (stereo not drawn) [Example 6, 6α,9α-Difluoro-17α-(2,6-difluorobenzoyl)oxy-11β-hydroxy-16α-methyl-3-oxo-androsta-1,4-diene-17β-carboxylic Acid cyanomethyl Ester], the Emax was under 35%.

With `COc1ccc(C(=O)OC2(C(=O)OCC#N)C(C)CC3C4CC(F)C5=CC(=O)C=CC5(C)C4(F)C(O)CC32C)cc1` (stereo not drawn) [Example 7, 6α,9α-Difluoro-11β-hydroxy-17α-(4-methoxybenzoyl)oxy-16α-methyl-3-oxo-androsta-1,4-diene-17β-carboxylic Acid cyanomethyl Ester], the Emax is under 35%.

In the case of `CC1CC2C3CC(F)C4=CC(=O)C=CC4(C)C3(F)C(O)CC2(C)C1(OC(=O)CC1CCCC1)C(=O)OCC#N` (stereo not drawn) [Example 9, 17α-(Cyclopentylmethylcarbonyl)oxy-6α,9α-difluoro-11β-hydroxy-16α-methyl-3-oxo-androsta-1,4-diene-17β-carboxylic Acid Cyanomethyl Ester], the Emax was under 35%.

With `CC1CC2C3CC(F)C4=CC(=O)C=CC4(C)C3(F)C(O)CC2(C)C1(OC(=O)CC(C)(C)C)C(=O)OCC#N` (stereo not drawn) [Example 10, 6α,9α-Difluoro-17α-(3,3-dimethylbutanoyl)oxy-11β-hydroxy-16α-methyl-3-oxo-androsta-1,4-diene-17β-carboxylic Acid Cyanomethyl Ester], the Emax is under 35%.

For the compound `CC(C)c1nc(C(=O)O[C@]2(C(=O)OCC#N)[C@H](C)C[C@H]3[C@@H]4C[C@H](F)C5=CC(=O)C=C[C@]5(C)[C@@]4(F)[C@@H](O)C[C@@]32C)cs1` [Example 11, 6α,9α-Difluoro-11β-hydroxy-17α-(2-isopropyl-1,3-thiazole-4-carbonyl)oxy-16α-methyl-3-oxo-androsta-1,4-diene-17β-carboxylic Acid Cyanomethyl Ester], the Emax is under 35%.

With `CC1CC2C3CC(F)C4=CC(=O)C=CC4(C)C3(F)C(O)CC2(C)C1(OC(=O)c1ccc2ccccc2n1)C(=O)OCC#N` (stereo not drawn) [Example 12, 6α,9α-Difluoro-11β-hydroxy-16α-methyl-3-oxo-17α-(quinoline-2-carbonyl)oxy-androsta-1,4-diene-17β-carboxylic Acid Cyanomethyl Ester], the Emax was under 35%.

With `CC1CC2C3CC(F)C4=CC(=O)C=CC4(C)C3(F)C(O)CC2(C)C1(OC(=O)c1ccc(C(F)(F)F)o1)C(=O)OCC#N` (stereo not drawn) [Example 13, 6α,9α-Difluoro-11β-hydroxy-16α-methyl-3-oxo-17α-(5-trifluoromethyl-furan-2-carbonyl)oxy-androsta-1,4-diene-17β-carboxylic Acid Cyanomethyl Ester], the Emax was under 35%.

For `CC1CC2C3CC(F)C4=CC(=O)C=CC4(C)C3(F)C(O)CC2(C)C1(OC(=O)c1ccc(S(C)(=O)=O)s1)C(=O)OCC#N` (stereo not drawn) [Example 14, 6α,9α-Difluoro-11β-hydroxy-16α-methyl-17α-(5-methylsulphonyl-thiophene-2-carbonyl)oxy-3-oxo-androsta-1,4-diene-17β-carboxylic Acid Cyanomethyl Ester], the Emax is under 35%.

As to `CCc1cc(C(=O)OC2(C(=O)OCC#N)C(C)CC3C4CC(F)C5=CC(=O)C=CC5(C)C4(F)C(O)CC32C)no1` (stereo not drawn) [Example 16, 6α,9α-Difluoro-17α-(5-ethyl-isoxazole-3-carbonyl)oxy-11β-hydroxy-16α-methyl-3-oxo-androsta-1,4-diene-17β-carboxylic Acid Cyanomethyl Ester], the Emax was under 35%.

Turning to `CC1CC2C3CCC4=CC(=O)C=CC4(C)C3(F)C(O)CC2(C)C1(OC(=O)C1C(C)(C)C1(C)C)C(=O)OCC#N` (stereo not drawn) [Example 17, 9α-Fluoro-11β-hydroxy-16β-methyl-3-oxo-17α-(2,2,3,3-tetramethylcyclopropylcarbonyl)oxy-androsta-1,4-diene-17 b-carboxylic Acid cyanomethyl ester], the Emax is under 35%.

For the compound `COc1c(C(=O)OC2(C(=O)OCC#N)C(C)CC3C4CC(F)C5=CC(=O)C=CC5(C)C4(F)C(O)CC32C)csc1Cl` (stereo not drawn) [Example 19, 17α-(5-Chloro-4-methoxy-thiophene-3-carbonyl)oxy-6α,9α-difluoro-11β-hydroxy-16α-methyl-3-oxo-androsta-1,4-diene-17β-carboxylic Acid Cyanomethyl Ester], the Emax is under 35%.

Take `CC1CC2C3CC(F)C4=CC(=O)C=CC4(C)C3(F)C(O)CC2(C)C1(OC(=O)C1C(C)(C)C1(Cl)Cl)C(=O)SCC#N` (stereo not drawn) [Example 21, 17α-(22-Dichloro-3,3-dimethylclopropylcarbonyl)oxy-6α,9α-difluoro-11β-hydroxy-16α-methyl-3-oxo-androsta-1,4-diene-17β-carbothioic acid S-cyanomethyl Ester]: the Emax is under 35%.

Consider `CC1CC2C3CC(F)C4=CC(=O)C=CC4(C)C3(F)C(O)CC2(C)C1(OC(=O)C1CCCCC1)C(=O)SCC#N` (stereo not drawn) [Example 22, 17α-(Cyclohexylcarbonyl)oxy-6α,9α-difluoro-1,1-hydroxy-16α-methyl-3-oxo-androsta-1,4-diene-17β-carbothioic Acid S-cyanomethyl Ester], for which the Emax was under 35%.

The next assay has as its target T2, Progesterone Receptor (Homo sapiens, UniProt P06401).
T2 construct: The human breast cancer cell line T47D has been reported to upregulate an endogenous alkaline phosphatase in response to progestins; endogenous in cells; host or cells: T47D cells
T2 sequence (P06401 1-933): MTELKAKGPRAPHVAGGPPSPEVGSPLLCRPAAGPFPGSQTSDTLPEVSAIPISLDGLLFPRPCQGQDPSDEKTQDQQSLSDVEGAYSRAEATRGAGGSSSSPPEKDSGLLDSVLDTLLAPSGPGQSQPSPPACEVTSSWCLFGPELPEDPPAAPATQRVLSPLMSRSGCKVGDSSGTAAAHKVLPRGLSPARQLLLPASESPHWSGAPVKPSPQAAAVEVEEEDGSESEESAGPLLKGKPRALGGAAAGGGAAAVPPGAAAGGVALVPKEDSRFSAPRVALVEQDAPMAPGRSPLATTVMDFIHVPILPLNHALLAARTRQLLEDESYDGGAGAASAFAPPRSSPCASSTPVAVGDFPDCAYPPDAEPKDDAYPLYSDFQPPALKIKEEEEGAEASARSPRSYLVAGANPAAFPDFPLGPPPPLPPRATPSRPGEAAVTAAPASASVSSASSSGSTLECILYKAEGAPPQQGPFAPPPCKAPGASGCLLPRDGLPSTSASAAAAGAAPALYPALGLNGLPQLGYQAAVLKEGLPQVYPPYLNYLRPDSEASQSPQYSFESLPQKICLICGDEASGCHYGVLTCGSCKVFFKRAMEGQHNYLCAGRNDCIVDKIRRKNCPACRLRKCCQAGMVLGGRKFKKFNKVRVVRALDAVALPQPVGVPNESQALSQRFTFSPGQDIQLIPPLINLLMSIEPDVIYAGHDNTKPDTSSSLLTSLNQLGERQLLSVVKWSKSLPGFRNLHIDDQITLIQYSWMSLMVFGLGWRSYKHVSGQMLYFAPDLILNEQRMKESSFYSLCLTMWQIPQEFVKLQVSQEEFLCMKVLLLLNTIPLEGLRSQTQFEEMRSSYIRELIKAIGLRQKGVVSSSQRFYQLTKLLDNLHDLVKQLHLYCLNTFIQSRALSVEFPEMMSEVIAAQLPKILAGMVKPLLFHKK
In words: Assay for Progesterone Receptor Activity: alkaline phosphatase upregulation in T47D cells. It counts as cell-based. Particulars: 24 hours at 37° C. The protocol:
Assay for Progesterone Receptor Activity
The human breast cancer cell line T47D has been reported to upregulate an endogenous alkaline phosphatase in response to progestins (Di Lorenzo et al., Cancer Research (1991) 51, 4470-4475. T47D cells were seeded into 96 well plates at a density of 1×10^5 cells per well and grown overnight at 37° C. Steroids were dissolved in DMSO, added to the cells (final DMSO concentration 0.7%), and incubated for 24 hours at 37° C. The cells were then washed with PBS and lysed with RIPA buffer (1% IGEPAL, 0.5% Na deoxycholate, 0.1% SDS in phosphate buffered saline). Alkaline phosphatase activity was measured spectrophotometrically (405 nm) using p-nitrophenylphosphate (1.5 mg/ml) as a substrate dissolved in 1 M diethanolamine, 0.28M NaCl, 0.5 mM MgCl2. Dose response curves were constructed from which EC50 values were estimated.
Compound `C[C@@H]1C[C@H]2[C@@H]3C[C@H](F)C4=CC(=O)C=C[C@]4(C)[C@@]3(F)[C@@H](O)C[C@]2(C)[C@@]1(OC(=O)C1CCCCC1)C(=O)OCC#N` [Example 5, 17α-(Cyclohexylcarbonyl)oxy-6α,9α-difluoro-11β-hydroxy-16α-methyl-3-oxo-androsta-1,4-diene-17β-carboxylic Acid cyanomethyl Ester] yielded an EC50 of over 100 nM.

For `CC(C)c1nc(C(=O)O[C@]2(C(=O)OCC#N)[C@H](C)C[C@H]3[C@@H]4C[C@H](F)C5=CC(=O)C=C[C@]5(C)[C@@]4(F)[C@@H](O)C[C@@]32C)cs1` [Example 11, 6α,9α-Difluoro-11β-hydroxy-17α-(2-isopropyl-1,3-thiazole-4-carbonyl)oxy-16α-methyl-3-oxo-androsta-1,4-diene-17β-carboxylic Acid Cyanomethyl Ester], the EC50 was over 100 nM.
